Laboratory results reported in publication PMC12406203 (Journal of Medicinal Chemistry, 2025).

Columns and labels:
Test in all cases: KINOMEscan
Format in all cases: binding
JNK3 = target: T1, JNK3 (Homo sapiens, UniProt P53779)
T1 construct: purchased Eurofins DiscoverX, LLC; host or cells: E. coli (BL21-derived, T7 phage) or HEK-293

ABL1-nonphosphorylated = target: T2, ABL1-nonphosphorylated (Homo sapiens, UniProt P00519)
T2 construct: purchased Eurofins DiscoverX, LLC; host or cells: E. coli BL21-derived (T7 phage) or HEK-293

FGFR3 = target: T3, FGFR3 (Homo sapiens, UniProt P22607)
T3 construct: purchased Eurofins DiscoverX, LLC; host or cells: E. coli (T7 phage) or HEK-293
T3 sequence (P22607 23-806): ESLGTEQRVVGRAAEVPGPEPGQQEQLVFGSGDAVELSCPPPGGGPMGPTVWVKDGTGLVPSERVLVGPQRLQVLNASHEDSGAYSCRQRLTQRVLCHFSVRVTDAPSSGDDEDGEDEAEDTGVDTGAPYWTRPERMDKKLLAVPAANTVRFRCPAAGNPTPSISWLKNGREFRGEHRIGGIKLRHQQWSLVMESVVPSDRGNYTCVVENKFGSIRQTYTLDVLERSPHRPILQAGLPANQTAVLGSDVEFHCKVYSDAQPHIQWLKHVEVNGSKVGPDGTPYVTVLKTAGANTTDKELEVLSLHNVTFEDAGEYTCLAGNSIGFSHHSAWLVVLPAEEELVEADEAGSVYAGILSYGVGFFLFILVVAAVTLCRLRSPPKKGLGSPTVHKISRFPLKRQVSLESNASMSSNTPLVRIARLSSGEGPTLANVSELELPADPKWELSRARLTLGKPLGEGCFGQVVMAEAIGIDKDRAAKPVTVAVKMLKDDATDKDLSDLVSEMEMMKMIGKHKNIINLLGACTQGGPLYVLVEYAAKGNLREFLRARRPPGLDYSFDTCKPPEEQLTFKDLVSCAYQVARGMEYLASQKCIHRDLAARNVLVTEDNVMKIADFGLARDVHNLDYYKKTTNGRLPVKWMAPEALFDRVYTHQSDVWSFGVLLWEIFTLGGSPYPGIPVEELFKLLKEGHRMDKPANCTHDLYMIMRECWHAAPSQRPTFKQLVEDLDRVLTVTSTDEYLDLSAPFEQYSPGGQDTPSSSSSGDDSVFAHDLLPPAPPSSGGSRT

KIT(V559D,T670I) = target: T4, KIT(V559D,T670I) (Homo sapiens, UniProt P10721, T670I/V559D)
T4 construct: purchased Eurofins DiscoverX, LLC; host or cells: E. coli (BL21-derived, T7 phage) or HEK-293
T4 sequence (P10721 26-976 V559D/T670I): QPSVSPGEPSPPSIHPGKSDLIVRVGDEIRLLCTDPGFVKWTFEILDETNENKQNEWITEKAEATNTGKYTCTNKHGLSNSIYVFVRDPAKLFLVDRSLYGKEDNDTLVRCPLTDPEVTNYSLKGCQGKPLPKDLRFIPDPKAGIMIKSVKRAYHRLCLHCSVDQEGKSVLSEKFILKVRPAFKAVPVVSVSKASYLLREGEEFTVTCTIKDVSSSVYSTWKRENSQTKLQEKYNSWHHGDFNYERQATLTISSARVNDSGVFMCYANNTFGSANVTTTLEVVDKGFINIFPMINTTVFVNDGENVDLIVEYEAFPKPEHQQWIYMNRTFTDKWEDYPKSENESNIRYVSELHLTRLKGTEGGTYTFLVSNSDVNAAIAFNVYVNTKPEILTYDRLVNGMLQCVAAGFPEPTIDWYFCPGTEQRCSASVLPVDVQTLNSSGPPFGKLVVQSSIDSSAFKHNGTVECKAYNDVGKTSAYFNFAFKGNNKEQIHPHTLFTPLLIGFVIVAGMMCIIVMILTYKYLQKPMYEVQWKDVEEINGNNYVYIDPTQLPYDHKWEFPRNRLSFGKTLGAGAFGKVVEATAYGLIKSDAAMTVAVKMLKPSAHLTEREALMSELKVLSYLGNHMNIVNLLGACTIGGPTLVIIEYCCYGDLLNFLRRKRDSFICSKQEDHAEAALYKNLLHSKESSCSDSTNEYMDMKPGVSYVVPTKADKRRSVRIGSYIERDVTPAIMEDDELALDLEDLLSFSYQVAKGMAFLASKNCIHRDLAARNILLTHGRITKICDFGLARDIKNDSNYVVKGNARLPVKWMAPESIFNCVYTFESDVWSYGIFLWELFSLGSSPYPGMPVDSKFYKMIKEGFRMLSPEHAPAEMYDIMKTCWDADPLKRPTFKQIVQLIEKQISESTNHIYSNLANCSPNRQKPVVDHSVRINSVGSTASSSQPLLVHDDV

EGFR(L858R) = target: T5, EGFR(L858R) (Homo sapiens, UniProt P00533, L858R)
T5 construct: purchased Eurofins DiscoverX, LLC; host or cells: E. coli (T7 phage) or HEK-293

ULK2 = target: T6, ULK2 (Homo sapiens, UniProt Q8IYT8)
T6 construct: purchased Eurofins DiscoverX, LLC; host or cells: E. coli BL21-derived host (T7 phage) or HEK-293
T6 sequence (Q8IYT8 1-1036): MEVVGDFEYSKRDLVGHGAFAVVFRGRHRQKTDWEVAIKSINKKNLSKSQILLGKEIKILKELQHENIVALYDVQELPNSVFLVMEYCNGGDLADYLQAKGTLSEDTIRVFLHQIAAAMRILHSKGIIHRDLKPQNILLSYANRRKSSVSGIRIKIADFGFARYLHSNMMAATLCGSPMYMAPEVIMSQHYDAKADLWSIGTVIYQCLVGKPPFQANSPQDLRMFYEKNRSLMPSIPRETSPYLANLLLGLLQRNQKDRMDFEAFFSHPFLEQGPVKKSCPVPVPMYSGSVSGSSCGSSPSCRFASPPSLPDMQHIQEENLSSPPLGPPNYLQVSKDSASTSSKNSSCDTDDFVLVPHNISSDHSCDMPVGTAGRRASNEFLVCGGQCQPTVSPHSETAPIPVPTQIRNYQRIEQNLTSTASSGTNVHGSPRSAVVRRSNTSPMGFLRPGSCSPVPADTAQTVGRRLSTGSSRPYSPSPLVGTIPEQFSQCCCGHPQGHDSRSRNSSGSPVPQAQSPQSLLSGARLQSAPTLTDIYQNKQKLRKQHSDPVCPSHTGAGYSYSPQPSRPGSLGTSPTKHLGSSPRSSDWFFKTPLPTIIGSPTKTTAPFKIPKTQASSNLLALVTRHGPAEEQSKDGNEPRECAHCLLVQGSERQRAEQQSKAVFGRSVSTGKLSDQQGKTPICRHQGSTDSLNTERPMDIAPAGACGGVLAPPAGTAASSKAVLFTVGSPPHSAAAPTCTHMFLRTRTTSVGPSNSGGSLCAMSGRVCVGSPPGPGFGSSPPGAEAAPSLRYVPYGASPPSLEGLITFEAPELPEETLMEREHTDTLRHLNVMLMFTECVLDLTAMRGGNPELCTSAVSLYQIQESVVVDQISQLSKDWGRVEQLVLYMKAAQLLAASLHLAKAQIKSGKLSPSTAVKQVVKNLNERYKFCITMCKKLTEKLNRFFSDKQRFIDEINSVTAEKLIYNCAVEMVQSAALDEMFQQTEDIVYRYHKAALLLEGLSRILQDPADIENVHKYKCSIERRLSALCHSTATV

RET = target: T7, RET (Homo sapiens, UniProt P07949)
T7 construct: purchased Eurofins DiscoverX, LLC; host or cells: E. coli BL21-derived host (T7 phage) or HEK-293
T7 sequence (P07949 29-1114): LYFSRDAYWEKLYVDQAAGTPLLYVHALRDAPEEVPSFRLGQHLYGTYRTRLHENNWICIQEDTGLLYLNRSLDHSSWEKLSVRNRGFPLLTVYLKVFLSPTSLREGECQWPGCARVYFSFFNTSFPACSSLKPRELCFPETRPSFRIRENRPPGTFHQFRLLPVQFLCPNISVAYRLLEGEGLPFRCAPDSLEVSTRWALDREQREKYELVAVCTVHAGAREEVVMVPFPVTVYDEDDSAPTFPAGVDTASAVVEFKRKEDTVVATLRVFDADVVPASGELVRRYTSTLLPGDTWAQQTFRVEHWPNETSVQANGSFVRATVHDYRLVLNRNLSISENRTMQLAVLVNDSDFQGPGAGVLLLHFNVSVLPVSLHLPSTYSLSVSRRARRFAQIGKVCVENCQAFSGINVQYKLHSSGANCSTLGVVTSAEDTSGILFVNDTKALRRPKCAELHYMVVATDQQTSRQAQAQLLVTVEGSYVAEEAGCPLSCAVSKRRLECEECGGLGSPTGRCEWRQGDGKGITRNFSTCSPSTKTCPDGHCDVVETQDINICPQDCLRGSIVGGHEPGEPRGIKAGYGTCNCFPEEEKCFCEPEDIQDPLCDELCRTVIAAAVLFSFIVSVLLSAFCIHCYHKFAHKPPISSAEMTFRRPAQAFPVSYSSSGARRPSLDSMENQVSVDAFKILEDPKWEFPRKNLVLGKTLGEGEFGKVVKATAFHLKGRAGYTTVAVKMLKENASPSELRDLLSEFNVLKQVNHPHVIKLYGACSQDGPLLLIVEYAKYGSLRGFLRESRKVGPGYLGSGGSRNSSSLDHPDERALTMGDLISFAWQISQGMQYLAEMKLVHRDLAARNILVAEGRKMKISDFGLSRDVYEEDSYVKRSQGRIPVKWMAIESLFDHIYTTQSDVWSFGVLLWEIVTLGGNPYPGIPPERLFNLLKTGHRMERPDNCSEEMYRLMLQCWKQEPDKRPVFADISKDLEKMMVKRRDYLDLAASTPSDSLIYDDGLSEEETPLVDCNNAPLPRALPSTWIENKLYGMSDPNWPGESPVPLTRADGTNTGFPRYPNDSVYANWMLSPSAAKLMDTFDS

RAF1 = target: T8, RAF1 (Homo sapiens, UniProt P04049)
T8 construct: purchased Eurofins DiscoverX, LLC; host or cells: E. coli BL21-derived host (T7 phage) or HEK-293
T8 sequence (P04049 whole entry): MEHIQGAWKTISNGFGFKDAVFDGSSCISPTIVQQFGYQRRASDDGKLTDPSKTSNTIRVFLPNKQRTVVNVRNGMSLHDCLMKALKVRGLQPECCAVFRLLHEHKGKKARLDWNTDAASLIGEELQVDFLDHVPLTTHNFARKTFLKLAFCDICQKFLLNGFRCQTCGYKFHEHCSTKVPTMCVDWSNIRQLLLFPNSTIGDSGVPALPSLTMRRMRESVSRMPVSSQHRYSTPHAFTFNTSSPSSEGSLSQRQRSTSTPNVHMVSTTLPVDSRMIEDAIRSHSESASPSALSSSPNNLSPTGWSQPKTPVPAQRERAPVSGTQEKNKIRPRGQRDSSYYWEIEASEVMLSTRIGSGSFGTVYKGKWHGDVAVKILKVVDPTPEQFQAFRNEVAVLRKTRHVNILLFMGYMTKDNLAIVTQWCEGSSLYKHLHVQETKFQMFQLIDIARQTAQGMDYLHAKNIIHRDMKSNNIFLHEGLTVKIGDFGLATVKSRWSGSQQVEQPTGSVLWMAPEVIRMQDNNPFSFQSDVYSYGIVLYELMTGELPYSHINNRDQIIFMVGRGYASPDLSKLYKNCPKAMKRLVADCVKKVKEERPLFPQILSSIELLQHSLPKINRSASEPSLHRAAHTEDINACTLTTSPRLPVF

LCK = target: T9, LCK (Homo sapiens, UniProt P06239)
T9 construct: purchased Eurofins DiscoverX, LLC; host or cells: E. coli (BL21-derived, T7 phage) or HEK-293
T9 sequence (P06239 whole entry): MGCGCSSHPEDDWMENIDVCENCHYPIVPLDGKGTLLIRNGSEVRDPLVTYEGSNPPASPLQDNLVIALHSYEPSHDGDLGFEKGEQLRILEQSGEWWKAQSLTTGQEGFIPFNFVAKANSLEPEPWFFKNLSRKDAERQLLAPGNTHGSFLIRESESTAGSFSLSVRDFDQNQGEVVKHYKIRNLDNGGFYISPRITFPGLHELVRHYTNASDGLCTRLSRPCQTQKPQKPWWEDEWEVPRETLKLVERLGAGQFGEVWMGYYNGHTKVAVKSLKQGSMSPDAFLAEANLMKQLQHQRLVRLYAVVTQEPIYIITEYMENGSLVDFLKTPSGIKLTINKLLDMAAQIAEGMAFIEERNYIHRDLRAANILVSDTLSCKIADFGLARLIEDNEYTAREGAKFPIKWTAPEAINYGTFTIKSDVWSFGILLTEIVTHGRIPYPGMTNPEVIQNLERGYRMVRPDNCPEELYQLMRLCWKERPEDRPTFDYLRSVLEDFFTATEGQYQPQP

KIT(D816V) = target: T10, KIT(D816V) (Homo sapiens, UniProt P10721, D816V)
T10 construct: purchased Eurofins DiscoverX, LLC; host or cells: E. coli (BL21-derived, T7 phage) or HEK-293
T10 sequence (P10721 26-976 D816V): as the sequence (P10721 26-976 V559D/T670I) above, with D534V, I645T, D791V counted along it

ERBB4 = target: T11, ERBB4 (Homo sapiens, UniProt Q15303)
T11 construct: purchased Eurofins DiscoverX, LLC; host or cells: E. coli (T7 phage) or HEK-293

[1] = target: T12, ABL1(T315I)-phosphorylated (Homo sapiens, UniProt P00519, T315I)
T12 construct: purchased Eurofins DiscoverX, LLC; host or cells: E. coli BL21-derived (T7 phage) or HEK-293

AKT2 = target: T13, AKT2 (Homo sapiens, UniProt P31751)
T13 construct: purchased Eurofins DiscoverX, LLC; host or cells: E. coli BL21-derived (T7 phage) or HEK-293
T13 sequence (P31751 whole entry): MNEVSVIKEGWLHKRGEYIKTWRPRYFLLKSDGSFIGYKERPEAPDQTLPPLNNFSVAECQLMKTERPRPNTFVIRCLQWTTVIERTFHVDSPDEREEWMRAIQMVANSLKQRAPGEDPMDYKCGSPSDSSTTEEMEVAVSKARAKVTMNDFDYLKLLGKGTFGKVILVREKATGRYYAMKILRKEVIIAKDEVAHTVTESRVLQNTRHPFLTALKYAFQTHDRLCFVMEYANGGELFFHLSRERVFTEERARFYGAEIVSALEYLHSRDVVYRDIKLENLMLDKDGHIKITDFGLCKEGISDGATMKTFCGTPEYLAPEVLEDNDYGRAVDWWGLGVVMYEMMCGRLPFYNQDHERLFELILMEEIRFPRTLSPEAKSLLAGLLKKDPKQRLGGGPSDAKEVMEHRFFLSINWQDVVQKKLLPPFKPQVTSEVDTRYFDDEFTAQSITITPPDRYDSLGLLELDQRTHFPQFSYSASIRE

T1 sequence (P53779 whole entry): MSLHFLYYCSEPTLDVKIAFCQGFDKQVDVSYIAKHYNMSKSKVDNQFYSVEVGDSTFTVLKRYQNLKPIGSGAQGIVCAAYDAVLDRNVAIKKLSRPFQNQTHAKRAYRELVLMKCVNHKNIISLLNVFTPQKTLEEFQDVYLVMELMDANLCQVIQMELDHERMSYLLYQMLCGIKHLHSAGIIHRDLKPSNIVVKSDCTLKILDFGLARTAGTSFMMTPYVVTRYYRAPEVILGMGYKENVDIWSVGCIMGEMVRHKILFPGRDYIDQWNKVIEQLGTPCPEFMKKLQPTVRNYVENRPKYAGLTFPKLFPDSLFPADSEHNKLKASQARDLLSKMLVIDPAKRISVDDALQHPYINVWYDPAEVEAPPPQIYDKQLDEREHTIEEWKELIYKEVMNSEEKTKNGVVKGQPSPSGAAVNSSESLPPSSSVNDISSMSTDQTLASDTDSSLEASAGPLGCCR

Row | SMILES | RA @ 1000nM (JNK3) [%] | RA @ 10000nM (JNK3) [%] | RA @ 1000nM (ABL1-nonphosphorylated) [%] | RA @ 10000nM (ABL1-nonphosphorylated) [%] | RA @ 1000nM (FGFR3) [%] | RA @ 10000nM (FGFR3) [%] | RA @ 1000nM (KIT(V559D,T670I)) [%] | RA @ 10000nM (KIT(V559D,T670I)) [%] | RA @ 1000nM (EGFR(L858R)) [%] | RA @ 10000nM (EGFR(L858R)) [%] | RA @ 1000nM (ULK2) [%] | RA @ 10000nM (ULK2) [%] | RA @ 1000nM (RET) [%] | RA @ 10000nM (RET) [%] | RA @ 1000nM (RAF1) [%] | RA @ 10000nM (RAF1) [%] | RA @ 1000nM (LCK) [%] | RA @ 10000nM (LCK) [%] | RA @ 1000nM (KIT(D816V)) [%] | RA @ 10000nM (KIT(D816V)) [%] | further results
1 | CN(C)CCNC(=O)c1cc2c(cnn2CC2CCCCC2)cc1Cc1ccc(F)cc1F [Compound 95, 1-(Cyclohexylmethyl)-5-(2,4-difluorobenzyl)-N-(2-(dimethylamino)ethyl)-1H-indazole-6-carboxamide] | 48 | 3.7 | 90 | 90 | 100 | 92 | 47 | 94 | 100 | 100 | 77 | 75 | 100 | 100 | 100 | 100 | 94 | 100 | 96 | 94 | RA @ 1000nM (ERBB4): 93%; RA @ 10000nM (ERBB4): 81%; RA @ 1000nM [1]: 72%; RA @ 10000nM [1]: 91%; RA @ 1000nM (AKT2): 100%; RA @ 10000nM (AKT2): 88%
2 | CC(C)Cn1ncc2cc(Cc3ccc(F)cc3F)c(C(=O)NCCN(C)C)cc21 [Compound 94, 5-(2,4-Difluorobenzyl)-N-(2-(dimethylamino)ethyl)-1-isobutyl-1H-indazole-6-carboxamide] | 55 | 6.8 | 85 | 97 | 100 | 100 | 100 | 100 | 100 | 66 | 71 | 88 | 100 | 100 | 100 | 100 | 100 | 97 | 94 | 100 | RA @ 1000nM (ERBB4): 85%; RA @ 10000nM (ERBB4): 83%; RA @ 1000nM [1]: 93%; RA @ 10000nM [1]: 90%; RA @ 1000nM (AKT2): 89%; RA @ 10000nM (AKT2): 76%
